Experiments:
[1] = tested on: post-confluent NHEK cells; assay: Growth of re-cultured post-confluent (cell-cell contact growth arrested) NHEK's; format: cell-based, human; conditions: for concentration causing optimal cell growth: post-confluent NHEK
Source text: Neonatal human epidermal foreskin keratinocytes (NHEKs) were used to test the ability of compounds to reverse, arrest or slow down cellular ageing. These cells typically undergo approximately 35 cell divisions before the Hayflick limit is reached but they can be induced to undergo premature senescence and, what has been understood to be, irreversible growth arrest earlier than this by induction of cell-cell contact growth inhibition when cultured at high cell density/to confluence (Poumay & Pittelkow 1995 J Inv Dermatol 104, p 271-276). The inventors were thus inspired to culture post-confluent cells and assess the effect of test compounds on the growth, telomere loss and secretion of inflammatory factors by such cells. An experimental schematic is provided as FIG. 1. 1.1 Culture of Early Passage NHEK's in the Presence and Absence of y27632 Pooled donor neonatal NHEK's (Cat No C-12005, Lot No 456Z001.1, PromoCell GmBH), serum-free PromoCell Keratinocyte Growth Medium 2 (KSFM, Cat No C20011. Lot No 472M197), CaCl2) (Lot No 471055) and Supplements (Lot No 472M013) were all obtained from PromoCell GmBH. NHEK's were thawed directly into a single T75 in 20 mls of complete KSFM (CaCl2 & Supplements), incubated over night at 37° C., 5% CO2 and the medium changed the following day. After 3 days the cells were 80% confluent and were passaged (Ist) using 0.05% Trypsin+EDTA (Gibco) into ×2 T75 flasks at a split ratio of 1:4. After overnight incubation at 37° C., 5% CO2, the cultures were at 30% confluence and 10 μM Y27632 (Cat No 688000, Lot No 2884132, Merck) was added to one of the flasks. […] Fresh T75 flasks were seeded with 5.0×10^5 cells from each in their respective medium. […] Fresh T75 flasks were seeded, as described previously, and also 1.2×10^4 NHEK cells/well were seeded into 24 well plates, incubated overnight to allow cell attachment, and the following subsequently added to separate wells: • A. NHEK in complete KSFM • B. NHEK+Y27632 in complete KSFM • C. Y27632 treated NHEK transferred to complete KSFM (Y27632 Removed) • D. NHEK transferred to complete KSFM+500 nM Tadalafil • E. NHEK transferred to complete KSFM+750 nM Tadalafil • F. NHEK transferred to complete KSFM+1000 nM Tadalafil • G. NHEK transferred to complete KSFM+1250 nM Tadalafil • H. NHEK transferred to complete KSFM+50 nM Fenbendazole • I. NHEK transferred to complete KSFM+100 nM Fenbendazole • J. NHEK transferred to complete KSFM+150 nM Fenbendazole • K. NHEK transferred to complete KSFM+200 nM Fenbendazole All drugs were added 24 hours after seeding. […] FIG. 2B is an example of the appearance of post-confluent cells.
Post-confluent NHEK's (FIG. 2B) were subsequently passaged (4th) into a fresh 24 well plate using a split ratio of 1 in 4 in 2 mls of fresh complete KSFM. These were left overnight to attach and the same compounds added (as shown in A-K of 1.1) followed by incubation for a further 24 hours and subsequently photographed.

[2] = Rat 4 month medicated feed study: mortality and appetite; format: in vivo, Sprague-Dawley rats
Source text: Seventy-eight Sprague-Dawley rats aged either 16 or 22 months were maintained with daily 12-hour light/dark cycles and allowed constant access to feed and water. The animals were bred and housed at the Cantacuzino National Medico-Military Institute for Research and Development, Bucharest 050096, Romania. These animals were split into 3 separate groups of 26, each containing the same number of younger and older animals, which were then given the following feeds prepared by Altromin Spezialfutter GmbH & Co. for a period of 4 months: • (A) Control maintenance feed plus standard multivitamin supplement (No API's) • (B) Formulation (A) plus 80 mg/Kilo of Fenbendazole. • (C) Formulation (B) plus 12.5 mg/Kilo Tadalafil. A buccal swab was then taken from each animal using an OracollectDNA OCR-100 sampling device (DNA Genotek, Canada). DNA was extracted using a DNeasy® Blood & Tissue Kit (Qiagen UK, Cat No 69505) which was checked for purity and quantified with a QuickDrop Spectrophotometer (Molecular Devices, Model 504 7178). This material was then used to analyse relative telomere length as described in section 1.6 except that the Relative Rat Telomere Length Quantification qPCR Assay Kit (ScienCell Research Labs, Catalog No. R8908) was used. Five consecutive samples from each of the three treatment groups were analysed on each 96 well PCR plate to minimize any inter-plate variability.

COC(=O)Nc1nc2ccc(Sc3ccccc3)cc2[nH]1 [Fenbendazole, methyl 5-(phenylthio)-2-benzimidazole carbamate]
continued growth of post-confluent NHEK's (phase contrast) ([1]; passage 4, 24 hours with compound, 10 μM Y27632, 500-1250 nM Tadalafil, 50-200 nM Fenbendazole, FIG. 3): all exhibited cell growth | concentration causing optimal cell growth ([1]; cultured for a further 24 hrs, FIG. 4): 100 to 150 nM | concentration causing optimal cell growth ([1]; passage 4, 24 hours, FIG. 3): 100 to 150 nM | appetite versus control ([2]; 4 months medicated feed): greater | surviving animals ([2]; after 4 months of medicated feed, groups of 26 rats aged 16 or 22 months, control 18): 23 | mortality ([2]; after 4 months of medicated feed, control 30.7%): 11.5%
